Where a SMILES comes first, the peptide text is derived from it. [ ]: non-standard residue; d: D form. The star is where a group is joined. Nle = CCCC[C@H](N)C(=O)O; Nva = CCC[C@H](N)C(=O)O; Cbz = O=C(OCc1ccccc1)*
B1: SUZ12 siRNA: siRNA targeting SUZ12 mRNA; stem-loop RNA from oligonucleotides SEQ ID NO: 1 and 2 (nucleic acid)
chain 1: GATCCCCGTCGCAACGGACCAGTTAATTCAAGAGATTAACTGGTCCGTTGCGACTTTTTGGAAA
chain 2: TCGATTTCCAAAAAGTCGCAACGGACCAGTTGATCTCTTGAATTAACTGGTCCGTTGCGACGGG
modifications: expressed or natural sequence; the letters are possibly those of the target site

Legend:
Type in all cases: cell-based, human
[1] = tested on: PRC2 target genes TGFBI, KRT17, FBXO32, ANXA8, DLX2; assay: Real-time RT-PCR of representative PRC2 targets in MCF-7 cells
Method: I: MCF-7 cells were untreated or treated with 3-deazaneplanocin (DZNep), 5-azacytidine (5-AzaC) or a combination of 5-azacytidine and trichostatin A (AZA+TSA), and RNA was isolated for gene expression analysis.
(§1) Cells were maintained in DMEM supplemented with 10% fetal bovine serum with glutamine, penicillin, and streptomycin. For drug treatment, cells were seeded the day before the drug treatment. Cells were treated with 5 μM 3-Deazaneplanocin A or 2 μM 5-aza-2′-deoxycytidine (5-AzaC; Sigma) for 72 hours and trichostatin A (TSA; Sigma) at 100 nM for 24 hours. For co-treatment of cells with 5-AzaC and TSA, 5-Aza was added for 48 hours and followed by TSA for 24 hours.
Total RNA was isolated from cell lines using Trizol (Invitrogen) and was converted to cDNA using an RNA Amplification kit (Ambion). […] Quantitative real-time PCR was performed on a PRISM 7900 sequenced detector (Applied Biosystems) using TaqMan probes (Applied Biosystems). Samples were normalized to the levels of 18S ribosomal RNA.
The array results were further confirmed by real-time RT-PCR for representative PRC2 targets.

[2] = tested on: MCF-7 cells; assay: Microarray gene expression analysis (Illumina BeadChip) in MCF-7 cells
Method: as §1
The Smartpool siRNA duplexes of selected PRC2 targets and the non-targeting control were purchased from Dharmacon (Lafayett, Colo.). […] Cells were transfected with 50 nM final concentration of siRNA duplexes using Lipofectamine 2000 (Invitrogen) following the manufacturer's instructions.
Total RNA was isolated from cell lines using Trizol (Invitrogen) and was converted to cDNA using an RNA Amplification kit (Ambion). The microarray hybridisation was performed using the Illumina Gene Expression BeadChip (Illumina) and data analysis was performed using GeneSpring software from Agilent Technologies.
The effects on gene expression were analysed using an Illumina Gene Expression BeadChip. […] To be inclusive for the subsequent analysis, all 1402 genes were considered to be potential PRC2 target genes.
To identify the PRC2 targets specifically repressed in breast cancer cells, the expression profiles of the 140 putative PRC2 target genes in MCF-7 cells and MCF10A cells were compared by gene clustering analysis (FIG. 4C).

[3] = tested on: EZH2 and SUZ12 protein levels in MCF-7 cells; assay: Proteosome inhibitor rescue of 3-deazaneplanocin-induced PRC2 depletion (Western blot); conditions: 3-deazaneplanocin 18 h then MG132 (5 μM), LLNL (50 μM) or MG115 (20 μM) for 8 h
Method: FIG. 1C depicts the effect of 3-deazaneplanocin in the presence of proteosome inhibitors on EZH2 and SUZ12 protein levels. MCF-7 cells were treated with 3-deazaneplanocin for 18 h, followed by the addition of proteosome inhibitor MG132 (5 μM), LLNL (50 μM), MG115 (20 μM) […] for 8 h. Cells were harvested for Western blot analysis of EZH2 and SUZ12.
Cell pellets were first lysed in RadioImmuno Precipitation Assay (RIPA) buffer, consisting of an aqueous solution of 25 mM Tris-HCl pH 7.6, 150 mM NaCl, 1% Nonidet-P 40 (NP-40), 1% sodium deoxycholate and 0.1% sodium dodecylsulfate (SDS), before further sonicated using a tissue homogeniser to release all the proteins. Equal amounts of protein were separated on SDS-polyacrylamide gels and transferred to polyvinylidene difluoride (PVDF) membranes. The blots were probed with antibodies against: EED (07-368), SUZ12 (07-379), SUV39H1 (07-550), BMI1 (05-637), tri-methylated H3-K27 (07-449), tri-methylated H3-K9 (07-442) and Acetyl-Histone H3 (06-599), and were purchased from Upstate. EZH2 (AC22) and Histone H3 (3H1) were from Cell Signaling. Antibodies against DNA methyl-transferases DNMT1 and DNMT3B were purchased from Alexis Biochemicals.
It has previously been reported that the stability of PRC2 proteins is regulated through proteosome-mediated mechanism. It was therefore tested whether the depletion of PRC2 proteins by 3-deazaneplanocin results from the protein degradation. MCF-7 cells were treated with 3-deazaneplanocin in the presence or absence of three individual proteosome inhibitors MG132, LLNL, and MG115 to test if these treatments would rescue 3-deazaneplanocin-induced PRC2 depletion.

Molecule	downregulation of EZH2 and SUZ12 protein levels in response to 3-deazaneplanocin [3]	further results
Nc1ncn([C@H]2C[C@H](O)[C@@H](CO)O2)c(=O)n1 [5-AzaC, 5-aza-2′-deoxycytidine, reference compound]		induction of TGFBI, KRT17 and FBX032 (real-time RT-PCR) [1]: not; reactivation of the 140 PRC2 targets in general, in comparison with 3-deazaneplanocin ([2]; array, 5-AzaC 2 μM, TSA 100 nM): did not result in the significant reactivation
CCCC[C@@H](C=O)NC(=O)[C@H](CC(C)C)NC(=O)[C@H](CC(C)C)NC(C)=O [LLNL] (Ac-Leu-Leu-[Nle]-aldehyde)	prevented the downregulation	
CCC[C@@H](C=O)NC(=O)[C@H](CC(C)C)NC(=O)[C@H](CC(C)C)NC(=O)OCc1ccccc1 [MG115] (Cbz-Leu-Leu-[Nva]-aldehyde)	prevented the downregulation	
CC(C)C[C@@H](C=O)NC(=O)[C@H](CC(C)C)NC(=O)[C@H](CC(C)C)NC(=O)OCc1ccccc1 [MG132] (Cbz-Leu-Leu-Leu-aldehyde)	prevented the downregulation	
B1		number of genes upregulated ≧2-fold after siRNA treatment ([2]; siRNA knockdown of PRC2 component): 572 genes
